Test [1] addresses Receptor-interacting serine/threonine-protein kinase 3 (Homo sapiens, UniProt Q9Y572).
For test [2], the target named is Protein kinase C beta type (Homo sapiens, UniProt P05771).
In test [3] the target is T1, Serine/threonine-protein kinase Nek9 (Homo sapiens, UniProt Q8TD19).
T1 sequence (Q8TD19 whole entry): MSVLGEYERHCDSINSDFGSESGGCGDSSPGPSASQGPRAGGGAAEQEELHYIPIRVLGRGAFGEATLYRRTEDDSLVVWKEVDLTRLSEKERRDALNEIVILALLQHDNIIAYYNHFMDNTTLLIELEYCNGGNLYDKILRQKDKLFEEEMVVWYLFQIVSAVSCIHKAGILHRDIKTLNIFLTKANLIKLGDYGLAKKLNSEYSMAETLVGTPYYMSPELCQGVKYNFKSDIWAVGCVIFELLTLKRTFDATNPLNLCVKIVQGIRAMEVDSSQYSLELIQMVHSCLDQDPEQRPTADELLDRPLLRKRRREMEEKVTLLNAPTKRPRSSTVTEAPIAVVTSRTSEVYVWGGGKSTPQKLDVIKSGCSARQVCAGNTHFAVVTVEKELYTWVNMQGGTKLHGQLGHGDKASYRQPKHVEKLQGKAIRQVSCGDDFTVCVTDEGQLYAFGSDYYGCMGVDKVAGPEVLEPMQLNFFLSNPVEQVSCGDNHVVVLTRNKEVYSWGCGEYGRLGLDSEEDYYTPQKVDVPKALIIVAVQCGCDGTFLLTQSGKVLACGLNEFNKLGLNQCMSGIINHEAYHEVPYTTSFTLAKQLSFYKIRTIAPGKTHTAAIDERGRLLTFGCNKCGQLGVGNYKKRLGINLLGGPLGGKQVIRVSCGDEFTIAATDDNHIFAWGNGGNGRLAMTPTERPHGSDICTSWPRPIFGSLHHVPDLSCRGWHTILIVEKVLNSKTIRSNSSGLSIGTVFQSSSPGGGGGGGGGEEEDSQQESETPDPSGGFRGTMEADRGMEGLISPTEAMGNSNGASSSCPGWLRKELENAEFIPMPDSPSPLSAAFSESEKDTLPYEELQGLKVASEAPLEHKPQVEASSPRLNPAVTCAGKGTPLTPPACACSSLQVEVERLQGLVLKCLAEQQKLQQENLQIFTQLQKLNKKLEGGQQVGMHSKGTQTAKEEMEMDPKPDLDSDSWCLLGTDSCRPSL

In test [4] the target is Tyrosine-protein kinase Fer (Homo sapiens, UniProt P16591).
Test [5] has as its target T2, Peroxisomal acyl-coenzyme A oxidase 3 (Homo sapiens, UniProt O15254).
T2 sequence (O15254 whole entry): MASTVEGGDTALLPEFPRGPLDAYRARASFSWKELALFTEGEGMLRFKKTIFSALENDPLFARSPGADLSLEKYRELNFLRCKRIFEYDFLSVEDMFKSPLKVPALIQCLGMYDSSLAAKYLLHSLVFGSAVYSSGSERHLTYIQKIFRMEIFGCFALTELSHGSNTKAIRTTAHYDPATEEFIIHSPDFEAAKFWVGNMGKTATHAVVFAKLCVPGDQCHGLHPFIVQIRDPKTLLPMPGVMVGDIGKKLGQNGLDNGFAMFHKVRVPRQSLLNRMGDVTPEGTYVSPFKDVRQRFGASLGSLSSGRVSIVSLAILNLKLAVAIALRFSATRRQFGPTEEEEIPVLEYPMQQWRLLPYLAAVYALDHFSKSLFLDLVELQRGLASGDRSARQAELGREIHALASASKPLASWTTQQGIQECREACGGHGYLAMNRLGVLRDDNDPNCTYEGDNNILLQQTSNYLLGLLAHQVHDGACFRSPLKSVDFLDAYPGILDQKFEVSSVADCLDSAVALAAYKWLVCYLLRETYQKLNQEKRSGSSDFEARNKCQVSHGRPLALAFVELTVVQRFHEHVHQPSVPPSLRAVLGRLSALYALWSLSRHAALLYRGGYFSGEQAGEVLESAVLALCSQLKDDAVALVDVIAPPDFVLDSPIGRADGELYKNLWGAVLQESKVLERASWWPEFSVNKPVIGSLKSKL

For test [6], the target named is Mitogen-activated protein kinase 9 (Homo sapiens, UniProt P45984).
The target in another test is T3, TGF-beta receptor type-1 (Homo sapiens, UniProt P36897).
T3 sequence (P36897 whole entry): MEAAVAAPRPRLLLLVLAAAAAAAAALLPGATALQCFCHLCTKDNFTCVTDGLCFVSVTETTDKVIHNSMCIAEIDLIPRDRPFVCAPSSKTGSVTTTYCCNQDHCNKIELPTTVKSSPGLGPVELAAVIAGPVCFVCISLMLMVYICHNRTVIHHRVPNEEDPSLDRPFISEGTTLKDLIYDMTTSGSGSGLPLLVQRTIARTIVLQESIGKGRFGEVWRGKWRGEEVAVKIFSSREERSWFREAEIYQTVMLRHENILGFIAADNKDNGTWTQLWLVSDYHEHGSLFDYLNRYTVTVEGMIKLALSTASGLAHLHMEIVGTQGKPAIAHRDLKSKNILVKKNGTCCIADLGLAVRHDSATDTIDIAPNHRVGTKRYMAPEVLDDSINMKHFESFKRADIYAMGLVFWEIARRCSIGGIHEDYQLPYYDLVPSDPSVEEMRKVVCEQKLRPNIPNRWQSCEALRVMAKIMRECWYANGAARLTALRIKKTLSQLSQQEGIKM

Test [7] has as its target Serine/threonine-protein kinase MRCK alpha (Homo sapiens, UniProt Q5VT25).
The target of test [8] is Serine/threonine-protein kinase 10 (Homo sapiens, UniProt O94804).
The target of test [9] is Mitogen-activated protein kinase kinase kinase 20 (Homo sapiens, UniProt Q9NYL2).
The target in test [10] is Serine/threonine-protein kinase B-raf (Homo sapiens, UniProt P15056).
Test [11] concerns the target cAMP-dependent protein kinase catalytic subunit gamma (Homo sapiens, UniProt P22612).

The source made the active and inactive calls. Cut-off read from the data, not from the text of the source, for most assays here: actives have a measured Kd and inactives only a lower limit.
Note: in the data inactive means no Kd found up to 30 µM.

Mitogen-activated protein kinase 9, sequence (P45984 whole entry): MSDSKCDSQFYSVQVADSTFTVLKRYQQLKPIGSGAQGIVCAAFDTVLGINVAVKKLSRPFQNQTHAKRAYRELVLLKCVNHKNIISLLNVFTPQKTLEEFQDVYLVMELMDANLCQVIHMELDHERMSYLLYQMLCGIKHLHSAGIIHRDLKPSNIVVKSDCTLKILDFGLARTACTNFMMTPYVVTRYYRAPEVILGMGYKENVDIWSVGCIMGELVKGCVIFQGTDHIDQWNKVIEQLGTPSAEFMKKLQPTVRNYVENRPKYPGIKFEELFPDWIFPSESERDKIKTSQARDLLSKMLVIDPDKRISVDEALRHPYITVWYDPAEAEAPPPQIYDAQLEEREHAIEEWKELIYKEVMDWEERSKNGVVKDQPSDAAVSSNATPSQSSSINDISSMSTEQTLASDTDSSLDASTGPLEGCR
Serine/threonine-protein kinase B-raf, sequence (P15056 whole entry): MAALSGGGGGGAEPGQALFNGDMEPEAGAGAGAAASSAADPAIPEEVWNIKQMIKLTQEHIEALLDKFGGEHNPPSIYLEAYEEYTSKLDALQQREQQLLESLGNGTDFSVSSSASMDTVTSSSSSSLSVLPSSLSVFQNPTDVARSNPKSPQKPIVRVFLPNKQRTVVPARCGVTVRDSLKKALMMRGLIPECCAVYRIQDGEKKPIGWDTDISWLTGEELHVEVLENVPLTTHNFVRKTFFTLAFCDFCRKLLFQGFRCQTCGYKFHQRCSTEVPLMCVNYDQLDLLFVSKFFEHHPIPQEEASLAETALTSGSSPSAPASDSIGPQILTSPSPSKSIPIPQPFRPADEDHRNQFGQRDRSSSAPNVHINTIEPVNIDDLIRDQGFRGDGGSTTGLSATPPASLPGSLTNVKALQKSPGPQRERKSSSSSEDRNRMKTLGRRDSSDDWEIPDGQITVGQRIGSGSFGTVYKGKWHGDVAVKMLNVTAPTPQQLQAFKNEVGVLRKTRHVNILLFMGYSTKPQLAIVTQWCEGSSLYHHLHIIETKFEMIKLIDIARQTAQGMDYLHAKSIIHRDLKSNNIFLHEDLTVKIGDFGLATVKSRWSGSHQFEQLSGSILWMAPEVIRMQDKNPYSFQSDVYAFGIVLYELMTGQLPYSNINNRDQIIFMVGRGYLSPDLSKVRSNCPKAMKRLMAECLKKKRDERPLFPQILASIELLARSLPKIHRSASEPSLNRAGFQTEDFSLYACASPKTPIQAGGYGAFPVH
Serine/threonine-protein kinase 10, sequence (O94804 whole entry): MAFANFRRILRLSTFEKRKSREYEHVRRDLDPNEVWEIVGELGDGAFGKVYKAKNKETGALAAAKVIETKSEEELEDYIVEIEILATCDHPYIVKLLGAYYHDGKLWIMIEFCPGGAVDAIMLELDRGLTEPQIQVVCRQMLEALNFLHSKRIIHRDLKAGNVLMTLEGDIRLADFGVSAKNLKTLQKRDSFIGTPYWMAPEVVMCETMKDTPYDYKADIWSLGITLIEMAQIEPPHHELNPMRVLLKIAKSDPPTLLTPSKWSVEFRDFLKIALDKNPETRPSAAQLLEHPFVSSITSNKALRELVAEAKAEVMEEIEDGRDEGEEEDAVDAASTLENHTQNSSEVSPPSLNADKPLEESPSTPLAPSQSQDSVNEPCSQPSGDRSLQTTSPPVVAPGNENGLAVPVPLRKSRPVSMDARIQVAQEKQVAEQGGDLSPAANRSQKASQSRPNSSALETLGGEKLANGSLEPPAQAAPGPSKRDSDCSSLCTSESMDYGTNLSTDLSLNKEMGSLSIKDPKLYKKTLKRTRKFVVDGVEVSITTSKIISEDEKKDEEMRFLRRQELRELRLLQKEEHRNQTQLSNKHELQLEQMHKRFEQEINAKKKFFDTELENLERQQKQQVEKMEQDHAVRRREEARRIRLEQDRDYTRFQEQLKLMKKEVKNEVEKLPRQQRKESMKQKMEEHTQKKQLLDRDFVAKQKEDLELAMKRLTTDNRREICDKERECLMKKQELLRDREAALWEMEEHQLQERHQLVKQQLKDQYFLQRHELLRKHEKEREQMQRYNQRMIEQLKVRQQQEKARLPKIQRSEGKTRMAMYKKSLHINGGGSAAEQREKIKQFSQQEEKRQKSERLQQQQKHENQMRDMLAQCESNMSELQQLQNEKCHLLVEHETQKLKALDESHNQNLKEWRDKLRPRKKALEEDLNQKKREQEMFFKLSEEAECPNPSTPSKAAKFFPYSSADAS
Tyrosine-protein kinase Fer, sequence (P16591 whole entry): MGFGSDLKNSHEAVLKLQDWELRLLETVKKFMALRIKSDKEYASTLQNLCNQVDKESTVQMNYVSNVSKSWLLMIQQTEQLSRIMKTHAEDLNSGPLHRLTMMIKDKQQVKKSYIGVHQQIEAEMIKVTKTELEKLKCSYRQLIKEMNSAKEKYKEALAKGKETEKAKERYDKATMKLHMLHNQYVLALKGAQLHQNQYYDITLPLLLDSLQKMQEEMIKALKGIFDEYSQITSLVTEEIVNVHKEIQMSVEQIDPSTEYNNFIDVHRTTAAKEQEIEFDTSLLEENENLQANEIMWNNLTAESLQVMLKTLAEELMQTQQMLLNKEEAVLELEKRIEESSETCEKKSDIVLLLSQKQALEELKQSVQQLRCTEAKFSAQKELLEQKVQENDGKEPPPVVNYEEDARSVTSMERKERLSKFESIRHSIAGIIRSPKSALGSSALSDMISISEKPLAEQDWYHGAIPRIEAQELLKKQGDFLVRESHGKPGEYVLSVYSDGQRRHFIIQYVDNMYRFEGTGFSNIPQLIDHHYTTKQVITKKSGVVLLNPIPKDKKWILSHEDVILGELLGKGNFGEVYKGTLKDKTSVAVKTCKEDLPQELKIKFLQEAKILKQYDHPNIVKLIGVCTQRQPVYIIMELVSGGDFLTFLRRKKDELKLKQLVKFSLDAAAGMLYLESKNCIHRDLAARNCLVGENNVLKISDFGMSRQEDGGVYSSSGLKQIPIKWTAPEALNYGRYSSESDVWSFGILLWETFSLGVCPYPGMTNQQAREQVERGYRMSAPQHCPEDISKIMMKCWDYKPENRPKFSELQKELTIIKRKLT
Protein kinase C beta type, sequence (P05771 whole entry): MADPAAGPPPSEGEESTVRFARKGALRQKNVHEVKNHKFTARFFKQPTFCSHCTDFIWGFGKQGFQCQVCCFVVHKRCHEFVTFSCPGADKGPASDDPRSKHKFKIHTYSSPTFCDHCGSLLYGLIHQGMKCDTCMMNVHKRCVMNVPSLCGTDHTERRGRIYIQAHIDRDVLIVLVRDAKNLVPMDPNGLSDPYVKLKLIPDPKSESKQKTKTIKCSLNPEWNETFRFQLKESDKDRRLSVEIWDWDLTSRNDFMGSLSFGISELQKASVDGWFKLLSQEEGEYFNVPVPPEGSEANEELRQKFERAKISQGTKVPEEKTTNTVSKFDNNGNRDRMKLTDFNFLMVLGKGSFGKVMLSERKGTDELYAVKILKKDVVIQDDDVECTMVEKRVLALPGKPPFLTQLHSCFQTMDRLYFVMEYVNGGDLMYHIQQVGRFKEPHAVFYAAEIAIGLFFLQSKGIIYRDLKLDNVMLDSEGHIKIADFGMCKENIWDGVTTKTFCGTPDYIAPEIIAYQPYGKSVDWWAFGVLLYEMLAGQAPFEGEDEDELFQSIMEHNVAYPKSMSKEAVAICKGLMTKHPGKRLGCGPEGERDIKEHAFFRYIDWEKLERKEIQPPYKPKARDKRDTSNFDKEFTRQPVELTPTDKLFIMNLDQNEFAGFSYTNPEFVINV
Receptor-interacting serine/threonine-protein kinase 3, sequence (Q9Y572 whole entry): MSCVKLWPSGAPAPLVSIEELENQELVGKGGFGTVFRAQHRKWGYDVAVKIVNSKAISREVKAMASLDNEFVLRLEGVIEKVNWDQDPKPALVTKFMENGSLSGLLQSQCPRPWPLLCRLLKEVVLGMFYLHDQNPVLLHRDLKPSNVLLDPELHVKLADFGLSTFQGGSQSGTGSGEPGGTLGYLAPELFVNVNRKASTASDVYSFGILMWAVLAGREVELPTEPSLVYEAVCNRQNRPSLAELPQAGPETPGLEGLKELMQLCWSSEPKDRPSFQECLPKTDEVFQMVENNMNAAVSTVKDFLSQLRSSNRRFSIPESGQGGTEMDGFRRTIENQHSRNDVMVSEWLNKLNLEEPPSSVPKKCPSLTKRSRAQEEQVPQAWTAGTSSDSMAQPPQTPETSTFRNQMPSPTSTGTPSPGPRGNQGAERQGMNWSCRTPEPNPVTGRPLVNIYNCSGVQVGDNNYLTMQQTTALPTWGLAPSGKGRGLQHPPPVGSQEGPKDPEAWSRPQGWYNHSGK
Mitogen-activated protein kinase kinase kinase 20, sequence (Q9NYL2 whole entry): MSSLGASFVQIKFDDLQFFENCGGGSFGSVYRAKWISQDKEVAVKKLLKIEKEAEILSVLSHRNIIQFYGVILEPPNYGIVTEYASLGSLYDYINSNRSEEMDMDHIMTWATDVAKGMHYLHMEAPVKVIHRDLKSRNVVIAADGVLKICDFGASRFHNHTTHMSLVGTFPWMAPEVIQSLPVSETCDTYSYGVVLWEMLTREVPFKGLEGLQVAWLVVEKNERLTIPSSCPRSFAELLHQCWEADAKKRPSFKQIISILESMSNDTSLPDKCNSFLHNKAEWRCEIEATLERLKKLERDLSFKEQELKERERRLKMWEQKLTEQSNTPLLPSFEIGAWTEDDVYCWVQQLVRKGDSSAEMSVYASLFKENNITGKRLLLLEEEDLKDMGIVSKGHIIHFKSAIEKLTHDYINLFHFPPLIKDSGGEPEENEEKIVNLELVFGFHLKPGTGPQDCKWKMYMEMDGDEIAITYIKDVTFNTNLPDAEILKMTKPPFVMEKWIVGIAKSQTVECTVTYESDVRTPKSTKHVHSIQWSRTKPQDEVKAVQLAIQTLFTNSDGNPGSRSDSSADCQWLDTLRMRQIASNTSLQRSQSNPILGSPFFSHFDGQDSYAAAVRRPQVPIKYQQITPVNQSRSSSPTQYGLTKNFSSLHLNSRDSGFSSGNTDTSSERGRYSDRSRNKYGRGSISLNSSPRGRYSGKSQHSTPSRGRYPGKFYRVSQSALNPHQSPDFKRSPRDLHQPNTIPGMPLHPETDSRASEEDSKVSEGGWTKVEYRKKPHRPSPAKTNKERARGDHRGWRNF

In general, Kd refers to the free concentration of one partner at which half of the binding sites on the other are occupied at equilibrium, for simple one-to-one binding. Take `Cc1ccc(C(=O)Nc2ccc(Oc3cc4cnn(C)c4cc3-c3cn[nH]c3)c(F)c2)c(=O)n1-c1ccc(F)cc1` [MERESTINIB]: the Kd in test [1], in [2], in test [3], in test [4], in test [5] and in [6] was > 30 µM (inactive) throughout. Further, the Kd (on TGF-beta receptor type-1; in [7]; in test [8]; in [9]) was > 30 µM (inactive) in each case.

In the case of `C#Cc1cccc(Nc2ncnc3cc4c(cc23)OCCOCCOCCO4)c1` [ICOTINIB], the Kd in test [1], in test [2], in [3], in test [4], in [5] and in test [10] was > 30 µM (inactive) each time. Further, the Kd in test [6] was > 30 µM (inactive); on TGF-beta receptor type-1, > 30 µM (inactive); in test [7], > 30 µM (inactive); in [8], 0.227 µM (active); in test [9], > 30 µM (inactive).

For `CNC(=O)c1cccc(-c2ccc3c(N4CCOC[C@@H]4C)nc(N4CCOC[C@@H]4C)nc3n2)c1` [VISTUSERTIB], the Kd in [1], in test [2], in test [3], in test [4], in [5] and in test [10] was > 30 µM (inactive) each time. For the same molecule, the Kd (in [6]; at TGF-beta receptor type-1; in test [7]; in test [8]; in test [9]) was > 30 µM (inactive) in each case.

Regarding `O=C(Nc1ccc(OC(F)(F)F)cc1)c1sccc1NCc1ccnc2ccccc12` [OSI-930], the Kd was 1.7 µM (active) in [1]; > 30 µM (inactive) in test [2]; > 30 µM (inactive) in test [3]; > 30 µM (inactive) in test [4]; > 30 µM (inactive) in [5]; > 30 µM (inactive) in test [10]. The Kd in test [6] is > 30 µM (inactive); at TGF-beta receptor type-1, > 30 µM (inactive); in [7], > 30 µM (inactive); in test [8], > 30 µM (inactive); in [9], 7.73 µM (active).

In the case of `O=c1[nH]c([C@@H]2CCCN2)nc2c1oc1ccc(Cl)cc12`, the Kd in [1], in test [2], in test [3], in test [4], in [5] and in test [10] was > 30 µM (inactive) in each case. Also, the Kd (in [6]; at TGF-beta receptor type-1; in test [7]; in test [8]; in test [9]) was > 30 µM (inactive) each time.

For `Cn1c(=O)c(F)c(Nc2ccc(I)cc2F)c2c(=O)n(C[C@@H](O)CO)cnc21` [TAK-733], the Kd in test [1], in [2], in test [3], in [4], in test [5] and in test [10] was > 30 µM (inactive) each time. Moreover, the Kd (in test [6]; on TGF-beta receptor type-1; in [7]; in test [8]; in test [9]) was > 30 µM (inactive) throughout.

In the case of `S=C(NCc1ccc2c(c1)OCO2)N1CCN(c2ncnc3c2oc2ccccc23)CC1` [AMUVATINIB], the Kd in test [1], in test [2], in [3], in test [4], in test [5] and in test [10] was > 30 µM (inactive) each time. For the same molecule, the Kd (in test [6]; at TGF-beta receptor type-1; in test [7]; in test [8]; in test [9]) was > 30 µM (inactive) in each case.

For the molecule `Cn1c(=O)n(-c2ccc(C(C)(C)C#N)cc2)c2c3cc(-c4cnc5ccccc5c4)ccc3ncc21` [DACTOLISIB], the Kd in test [1], in [2], in test [3], in test [4], in [5] and in test [11] was > 30 µM (inactive) throughout. Also, the Kd (in test [10]; at TGF-beta receptor type-1; in [7]; in test [8]; in test [9]) was > 30 µM (inactive) throughout.

Turning to `COc1cc2ncnc(Nc3ccc(F)c(Cl)c3)c2cc1NC(=O)/C=C/CN1CCCCC1` [DACOMITINIB ANHYDROUS], the Kd was 3.64 µM (active) in test [1]; > 30 µM (inactive) in [2]; > 30 µM (inactive) in test [3]; > 30 µM (inactive) in test [4]; > 30 µM (inactive) in test [5]; > 30 µM (inactive) in [10]. In addition, the Kd (in test [6]; at TGF-beta receptor type-1; in test [7]; in [8]; in [9]) was > 30 µM (inactive) throughout.

For `NC[C@@](O)(c1ccc(Cl)cc1)c1ccc(-c2cn[nH]c2)cc1` [AT-13148], the Kd in test [1], in [2], in test [3], in test [4], in test [5] and in test [10] was > 30 µM (inactive) each time. The Kd (in test [6]; on TGF-beta receptor type-1; in [7]; in test [8]; in test [9]) was > 30 µM (inactive) each time.

The values are drawn from ChEMBL document CHEMBL3991601, “The target landscape of clinical kinase drugs” (Science, 2017).
